Test results taken from publication PMC6370756 (2019).

What was measured:
[1] = tested on: SP-PGQ-3 (DNA, G4) GGGCTAATAGGGAGAGCAGGGACGGGG; assay: ITC; conditions: K+ (10 mM potassium phosphate); pH 7.2, 25 °C; two-site fit, high-affinity site; site 1 of 2
[2] = tested on: SP-PGQ-1 (DNA, G4) GGGCAACTTGGCTGGGGTCTAGTTCCACGGGACGGG; assay: ITC; conditions: K+ (10 mM potassium phosphate); pH 7.2, 25 °C; two-site fit, high-affinity site; site 1 of 2

Ka [1]: 2.49e+07 M⁻¹
Ka [2]: 1.59e+06 M⁻¹
Structure (SMILES): C[n+]1ccc(-c2c3nc(c(-c4cc[n+](C)cc4)c4ccc([nH]4)c(-c4cc[n+](C)cc4)c4nc(c(-c5cc[n+](C)cc5)c5ccc2[nH]5)C=C4)C=C3)cc1
